Source: patent publication US20070031511A1, “Method of treatment” (priority 2003, published 2007)
“Also recorded” adds a separate entry of the source. Like-named read-outs stand apart in the source and are kept apart here.

How the values were obtained:
IMGE-5 cells [1] = assay: IMGE-5 cell proliferation, MTT assay; format: cell-based, mice; details: for Mean Response ± SEM (% Control), proliferation of IMGE cells: treatment alone: 10 nM Ggly, 32 mol/mol Bi without Ggly, fetal calf serum positive control
[2] = Quenching of peptide tryptophan fluorescence by ferric ions (stoichiometry, apparent Kd); format: binding; details: mean ± S.E.
How it was run: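 Ferric ions titrated into peptide in 10 mM sodium acetate pH 4.0, 100 mM NaCl, 0.005% Tween 20; Trp fluorescence quenching read at ex 290/em 345 nm. Stoichiometry and apparent Kd from linear regression of Cs/fa = pCa + Kd/(1−fa); means ±S.E. of independent experiments.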

IMGE-5 cells [3] = assay: Wound healing / cell migration assay; format: cell-based, mice; details: for Stimulation of IMGE-5 cell migration: wound healing assay, fragments and mutants shown at 1 nM (FIGS. 7B, 8B)
How it was run: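 Murine gastric IMGE-5 cells at 80% confluence were shifted to 39 °C (non-permissive), serum-starved 24 h, then scratch-wounded. They were treated with or without compound in serum-free DMEM. Wound width was measured at six positions after 24 h and averaged.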

Compound | Increase in proliferation of IMGE-5 (IMGE-5 cells [1]) [fold] | Kd ([2]; pH 4.0, read-out: Kd (μM) of ferric ion binding (amidated gastrin17 and related peptides)) [µM] | Kd ([2]; pH 4.0, model with two identical independent binding sites, read-out: Ferric Kd) [µM] | Stimulation of IMGE-5 cell migration (IMGE-5 cells [3]) | Mean Response ± SEM (% Control), proliferation of IMGE cells (IMGE-5 cells [1]) [% Control] | Effect on Ggly-induced migration of IMGE-5 cells (IMGE-5 cells [3]; 2, 8 or 32 moles/mole Ggly, 10 nM Ggly, 17 or 24 hours) | Effect of bismuth ions alone on migration (IMGE-5 cells [3]; maximum concentration tested, without Ggly) | Kd ([2]; 10 mM sodium acetate pH 4.0, 100 mM NaCl, 0.005% Tween 20, read-out: Kd (μM), apparent dissociation constant for ferric ions) [µM]
CSCC[C@H](NC(=O)[C@H](Cc1c[nH]c2ccccc12)NC(=O)CNC(=O)[C@H](Cc1ccc(O)cc1)NC(=O)[C@H](C)NC(=O)[C@H](CCC(=O)O)NC(=O)[C@H](CCC(=O)O)NC(=O)[C@H](CCC(=O)O)NC(=O)[C@H](CCC(=O)O)NC(=O)[C@H](CCC(=O)O)NC(=O)[C@H](CC(C)C)NC(=O)[C@H](Cc1c[nH]c2ccccc12)NC(=O)[C@@H]1CCCN1C(=O)CNC(=O)[C@@H]1CCC(=O)N1)C(=O)N[C@@H](CC(=O)O)C(=O)N[C@@H](Cc1ccccc1)C(N)=O [Gamide] | 2 | 0.2 ± 0.14 | 0.2 ± 0.1 | did not stimulate IMGE-5 cell migration; also recorded: inactive | – | – | – | –
[Bi+3] [bismuth ions] | – | – | – | – | 97.9 ± 2.5 | completely blocked | no effect | –
Ggly: glycine-extended gastrin17, 18 amino acid non-amidated gastrin, SEQ ID NO:4, residues 55-72 of progastrin (XGPWLEEEEEAYGWMDFG; (1)..(1) pyroglutamate; listed as Homo sapiens) | 2 | – | – | considerably reduced wound size | 135.7 ± 3.6 | – | – | 0.18 ± 0.04
